Read-outs that look alike come from different tables or passages of the source.
How the values were obtained:
F508del/F508del CFTR = target: T1, F508del/F508del CFTR (Homo sapiens, UniProt P13569, DEL508-508); experiment: Trans-Epithelial Current Clamp (TECC) assay using primary human bronchial epithelial cells; assay type: cell-based; conditions: for Emax (% Dual): maximum percent activity relative to positive control (co-corrector 0.15 μM + potentiator 0.45 μM = 100%); for EC50: primary hBE cells F508del/F508del, test corrector with co-corrector and potentiator, 18-24 hours, equivalent CFTR current
T1 construct: cells isolated from CF patients with the homozygous mutation; endogenous in cells; host or cells: primary human bronchial epithelial (hBE) cells from CF patients homozygous for F508del
From the text: A cell-based assay was developed using the primary human bronchial epithelial cells (hBE cells) with F508del/F508del CFTR and other mutations.
Primary human bronchial epithelial (hBE) cells from CFTR patients with homozygous F508del/F508del mutation were expanded from 1×10^6 to 250×10^6 cells (Neuberger, T et al., 2011, Methods Mol Biol 741:39-54). For this purpose, cells isolated from CF patients with the homozygous mutation, procured from the CF center tissue procurement and cell culture core at the Marsico Lung Institute at UNC (Randell), the Cystic Fibrosis translational research center at McGill University (University), and Rosalind Franklin University Medical School (RFUMS) were seeded onto 24 well Corning (Cat #3378) filter plates that were coated with 3T3 conditioned media and grown at an air-liquid interface for 35 days using an Ultroser® G supplemented differentiation media. All the primary human bronchial epithelial cells were collected in accordance with institutional review board approval protocols. Apical surface mucus was removed 72 hours before the experiment by incubating the apical surface of the cells for 30 minutes with 3 mM dithiothreitol (DTT) prepared in Dulbecco's phosphate buffered saline (DPBS) with Ca^2+ and Mg^2+. This was followed with aspiration of the mucus from the apical surface along with DPBS. The apical surface was re-washed with phosphate buffered saline (PBS) incubated for 30 minutes followed with aspiration. These hBE cells were then incubated with the desired concentrations of the test C2 corrector compounds along with co-corrector, 4-[(2R,4R)-4-({[1-(2,2-difluoro-1,3-benzodioxol-5-yl)cyclopropyl]carbonyl}amino)-7-(difluoromethoxy)-3,4-dihydro-2H-chromen-2-yl]benzoic acid and potentiator, (5-{3-amino-5-[4-(trifluoromethoxy)benzene-1-sulfonyl]pyridin-2-yl}-1,3,4-oxadiazol-2-yl)methanol, for 18-24 hours at 37° C., 5% CO2. The desired concentrations of the correctors and potentiator compounds were prepared from the 10 mM stocks in differentiation media and were always applied on the basolateral side of the epithelial cells. We also used an assay format where a fixed concentration of potentiator was added chronically along with the corrector compounds. This chronic treatment with the potentiator helped eliminate any interaction that might happen with CFTR modulators (correctors and potentiators) and thereby determined the true efficacy of the modulator combinations reflective of clinical relevance.
The assay uses a Transepithelial Current Clamp (TECC) (Vu, C B et al., 2017; J Med Chem 60:458-473) instrument that can measure the functionality of the mutated channel by measuring the equivalent CFTR current (IEQ) generated by the polarized primary epithelial cells. We used a TECC-24 with a 24-channel electrode manifold allowing for the simultaneous measurement of the transepithelial voltage, VT, and transepithelial resistance, RT, under current clamp conditions, from 24 filters using a 24 well Costar filter plate. The design of the filters in the 24 well filter plates was exactly the same as the design of an individual Transwell filter used in the classical Ussing Chamber with a surface area of 0.33 cm^2. Each measured VT values were corrected for the electrode offset potential measured using buffer alone in a separate plate, and each measured RT values were then corrected for the combined solution series and empty filter resistances. The corrected VT and RT values were then used to calculate the equivalent current, IEQ using Ohm's law (IEQ=VT/RT). The area under the curve (AUC) for the time period between the forskolin peak IEQ response and at the time of bumetanide addition was also calculated using a one-third trapezoid method, in addition to calculating the IEQ. The assay was run in a 24-well format and all 24-wells were measured at the same time point giving a higher throughput for this assay. […]

F508delCFTR = target: T2, F508delCFTR (Homo sapiens, UniProt P13569, DEL508-508); experiment: Cell Surface Expression-Horse Radish Peroxidase (CSE-HRP) assay in CFBE41o-F508delCFTR-HRP cells; assay type: cell-based; conditions: for EC50: CFBE41o-F508delCFTR-HRP cells, 18-24 hours at 33° C.; for Emax / Maximum % activity (with co-corrector): normalized to on-plate positive control; for Emax: read-out: Maximum % activity (without co-corrector)
T2 construct: expressed in transfected cells; host or cells: CFBE41o- human lung derived epithelial cell line, doxycycline-induced expression
Procedure: A cellular assay for measuring the F508delCFTR cell surface expression after correction with test compounds either without or with a co-corrector (2 μM of 3-[(2R,4R)-4-({[1-(2,2-difluoro-1,3-benzodioxol-5-yl)cyclopropyl]carbonyl}amino)-7-methoxy-3,4-dihydro-2H-chromen-2-yl]benzoic acid), was developed in human lung derived epithelial cell line (CFBE41o-) (Veit G et al, (2012) Mol Biol Cell. 23(21): 4188-4202). The development was achieved by expressing the F508delCFTR mutation along with a horseradish peroxidase (HRP) in the fourth exofacial loop, and then measuring the HRP activity using luminescence readout from these cells, CFBE41o-F508delCFTR-HIRP, that were incubated overnight with the test corrector compounds, either without or with the co-corrector. For this primary assay, the CFBE41o-F508delCFTR-HRP cells were plated in 384-well plates (Greiner Bio-one; Cat 781080) at 4,000 cells/well along with 0.5 μg/mL doxycycline to induce the F508delCFTR-HRP expression and further incubated at 37° C., […] for 68-72 hours. The test compounds were then added either without or with a co-corrector at the required concentrations and further incubated for 18-24 hours at 33° C. The highest concentration tested was 20 μM or 30 μM (GI-1 to GIII-36) with an 8-point concentration response curve using a 3-fold dilution in both the test compound without or with the co-corrector. Three replicate plates were run to determine one EC50. All plates contained negative controls (dimethyl sulfoxide, DMSO) and positive control (2 μM or 3 μM (GI-1 to GIII-36) of 3-[(2R,4R)-4-({[1-(2,2-difluoro-1,3-benzodioxol-5-yl)cyclopropyl]carbonyl}amino)-7-methoxy-3,4-dihydro-2H-chromen-2-yl]benzoic acid) as well as on-plate concentration response of the positive control. Post incubation, the plates were washed 5× times with Dulbecco's phosphate buffered saline (DPBS), followed by the addition of the HRP substrate, luminol (50 μL), and measuring the HRP activity using luminescence readout on EnVision® Multilabel Plate Reader (Perkin Elmer; product number 2104-0010). The raw counts from the experiment were analyzed using Accelrys® Assay Explorer v3.3.
Z′ greater than 0.5 was used as passing quality control criteria for the plates. The Z′ is defined as:
1−[3*SDPositive Control+3*SDNegative Control/Absolute(MeanPositive Control−MeanNegative Control)]
The % activity measured at each of the 8 test concentrations of the test compound added either without or with a co-corrector (2 μM or 3 μM (GI-1 to GIII-36) of 3-[(2R,4R)-4-({[1-(2,2-difluoro-1,3-benzodioxol-5-yl)cyclopropyl]carbonyl}amino)-7-methoxy-3,4-dihydro-2H-chromen-2-yl]benzoic acid) was normalized to the on-plate positive control using the following formulae:
% activity (Test compound without co-corrector)=[(test compound without co-corrector response−DMSO response)/(positive control response−DMSO response)]*100
% activity (Test compound with co-corrector)=[(test compound with co-corrector response−DMSO response)/(positive control response−DMSO response)]*100
The maximum % activity achieved for the test compound either without or with a co-corrector at any tested concentration is presented in Table 3 along with the respective EC50's calculated using the following general sigmoidal curve with variable Hill slope equation (described as Model 42 in the Accelrys® Assay Explorer v3.3 software):
General sigmoidal curve with concentration, response, top, bottom, EC50 and Hill slope. This model describes a sigmoidal curve with an adjustable baseline, a. The equation can be used to fit curves where response is either increasing or decreasing with respect to the independent variable, “x”.

[1] = with co-corrector 2 μM, read-out: EC50 (with co-corrector)
[2] = without co-corrector, read-out: EC50 (without co-corrector)

T2 sequence (P13569 with tags, fused parts or gaps DEL508-508): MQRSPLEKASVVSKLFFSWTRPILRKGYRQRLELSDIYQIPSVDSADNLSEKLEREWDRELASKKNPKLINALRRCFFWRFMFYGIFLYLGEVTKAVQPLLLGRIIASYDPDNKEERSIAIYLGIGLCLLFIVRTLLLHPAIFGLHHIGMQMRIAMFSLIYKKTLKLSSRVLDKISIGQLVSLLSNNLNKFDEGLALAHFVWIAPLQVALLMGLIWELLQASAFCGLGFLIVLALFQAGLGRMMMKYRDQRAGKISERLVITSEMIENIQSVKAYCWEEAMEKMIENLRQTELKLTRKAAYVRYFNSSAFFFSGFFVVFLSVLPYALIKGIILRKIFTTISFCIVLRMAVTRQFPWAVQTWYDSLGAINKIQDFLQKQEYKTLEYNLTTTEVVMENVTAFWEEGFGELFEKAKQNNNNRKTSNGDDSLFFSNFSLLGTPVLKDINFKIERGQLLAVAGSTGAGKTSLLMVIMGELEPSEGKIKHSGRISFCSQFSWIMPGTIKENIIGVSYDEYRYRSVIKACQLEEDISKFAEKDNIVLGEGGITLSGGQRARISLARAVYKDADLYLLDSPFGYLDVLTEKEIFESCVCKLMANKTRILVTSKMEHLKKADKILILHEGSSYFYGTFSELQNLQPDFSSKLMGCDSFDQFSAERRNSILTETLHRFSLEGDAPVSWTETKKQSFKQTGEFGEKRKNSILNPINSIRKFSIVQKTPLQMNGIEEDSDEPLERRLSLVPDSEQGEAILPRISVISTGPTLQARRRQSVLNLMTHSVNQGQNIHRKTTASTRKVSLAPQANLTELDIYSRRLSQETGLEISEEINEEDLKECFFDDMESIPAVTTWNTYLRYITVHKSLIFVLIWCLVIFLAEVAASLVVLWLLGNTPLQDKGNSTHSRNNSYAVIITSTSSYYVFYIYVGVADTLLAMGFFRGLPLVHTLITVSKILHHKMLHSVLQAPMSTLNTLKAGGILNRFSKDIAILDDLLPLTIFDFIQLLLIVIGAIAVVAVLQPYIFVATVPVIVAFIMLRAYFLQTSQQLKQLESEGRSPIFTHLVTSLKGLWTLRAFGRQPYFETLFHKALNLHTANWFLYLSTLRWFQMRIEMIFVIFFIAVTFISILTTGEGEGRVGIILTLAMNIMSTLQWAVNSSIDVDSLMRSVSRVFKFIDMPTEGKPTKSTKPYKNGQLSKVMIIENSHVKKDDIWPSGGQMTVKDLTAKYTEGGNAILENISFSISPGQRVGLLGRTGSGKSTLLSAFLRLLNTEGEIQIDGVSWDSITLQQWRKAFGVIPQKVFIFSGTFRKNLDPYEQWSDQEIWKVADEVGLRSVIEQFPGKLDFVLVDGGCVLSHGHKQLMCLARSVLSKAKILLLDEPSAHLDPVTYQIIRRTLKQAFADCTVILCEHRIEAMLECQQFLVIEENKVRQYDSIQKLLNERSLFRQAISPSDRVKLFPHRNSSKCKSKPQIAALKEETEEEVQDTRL
T1 sequence (P13569 with tags, fused parts or gaps DEL508-508): as above

| SMILES | Emax (% Dual) (F508del/F508del CFTR) | EC50 (F508del/F508del CFTR) [nM] | EC50 (F508delCFTR; [1]) [nM] | EC50 (F508delCFTR; [2]) [nM] | Emax (F508delCFTR; without co-corrector) [%] | Maximum % activity (with co-corrector) (F508delCFTR; with co-corrector 2 μM) [%] |
| --- | --- | --- | --- | --- | --- | --- |
| CCc1ccc(Oc2cccnc2OC(F)F)c([C@@]2(C(=O)NS(=O)(=O)c3cccc4nc(C)ccc34)CCCO2)c1 [Example 27, (2R)-2-(2-{[2-(difluoromethoxy)pyridin-3-yl]oxy}-5-ethylphenyl)-N-(2-methylquinoline-5-sulfonyl)oxolane-2-carboxamide] | 212 | 4.6 | 650 | 1470 | 709 | – |
| COc1ccc(C)cc1[C@]1(C(=O)NS(=O)(=O)c2cccc3nc(C)ccc23)C[C@H](c2ccccc2)CO1 [Example 37, (2S,4R)-2-(2-methoxy-5-methylphenyl)-N-(2-methylquinoline-5-sulfonyl)-4-phenyloxolane-2-carboxamide] | 305 | 38.3 | 3210 | 3630 | 217 | 573 |
| CCOc1ccc(CC)cc1[C@]1(C(=O)NS(=O)(=O)c2cccc3nc(C)ccc23)CCCO1 [Example 10, (2S)-2-(2-ethoxy-5-ethylphenyl)-N-(2-methylquinoline-5-sulfonyl)oxolane-2-carboxamide] | 129 | > 300 | 2700 | 3930 | 303 | 711 |
| CCc1ccc(OCC(C)OC)c([C@@]2(C(=O)NS(=O)(=O)c3cccc4nc(C)ccc34)CCCO2)c1 (stereo in doubt) [Example 14, (2R)-2-{5-ethyl-2-[(2S)-2-methoxypropoxy]phenyl}-N-(2-methylquinoline-5-sulfonyl)oxolane-2-carboxamide] | 161 | 244 | 2540 | 3490 | 334 | 871 |
| CCc1ccc(OC[C@H](C)OC)c([C@]2(C(=O)NS(=O)(=O)c3cccc4nc(C)ccc34)CCCO2)c1 [Example 13, (2S)-2-{5-ethyl-2-[(2S)-2-methoxypropoxy]phenyl}-N-(2-methylquinoline-5-sulfonyl)oxolane-2-carboxamide] | 119 | > 300 | 4990 | 6490 | 122 | 399 |
| COc1ccc(C)cc1[C@]1(C(=O)NS(=O)(=O)c2cccc3nc(C)ccc23)CC2(CC2)CO1 [Example 16, (6S)-6-(2-methoxy-5-methylphenyl)-N-(2-methylquinoline-5-sulfonyl)-5-oxaspiro[2.4]heptane-6-carboxamide] | 110 | > 300 | 2550 | 4800 | 147 | 444 |
| CCOc1ccc(CC)cc1[C@@]1(C(=O)NS(=O)(=O)c2cccc3nc(C)ccc23)CCCO1 [Example 9, (2R)-2-(2-ethoxy-5-ethylphenyl)-N-(2-methylquinoline-5-sulfonyl)oxolane-2-carboxamide] | 256 | 33.7 | 840 | 1650 | 865 | – |
| CCc1ccc(Oc2cccnc2OC)c([C@]2(C(=O)NS(=O)(=O)c3cccc4nc(C)ccc34)CCCO2)c1 [Example 24, (2S)-2-{5-ethyl-2-[(2-methoxypyridin-3-yl)oxy]phenyl}-N-(2-methylquinoline-5-sulfonyl)oxolane-2-carboxamide] | 167 | > 800 | 2520 | 3630 | 141 | 449 |
| COc1ccc(C)cc1[C@@]1(C(=O)NS(=O)(=O)c2cccc3nc(C)ccc23)C[C@](C)(OC)CO1 [Example 30, (2R,4S)-4-methoxy-2-(2-methoxy-5-methylphenyl)-4-methyl-N-(2-methylquinoline-5-sulfonyl)oxolane-2-carboxamide] | 197 | 331 | – | 2630 | 301 | – |
| COc1ccccc1[C@@H]1CO[C@@](C(=O)NS(=O)(=O)c2cccc3nc(N)ccc23)(c2cc(C)ccc2OC)C1 [Example 40, (2R,4R)—N-(2-aminoquinoline-5-sulfonyl)-2-(2-methoxy-5-methylphenyl)-4-(2-methoxyphenyl)oxolane-2-carboxamide] | 208 | 2.6 | 160 | 440 | 705 | – |

Source: patent US20220211692A1, “Modulators of the Cystic Fibrosis Transmembrane Conductance Regulator Protein and Methods of Use” (AbbVie Global Enterprises Ltd., priority 2021, published 2022)
